Reference: ChEMBL document CHEMBL3352216, “Triterpene glycosides from red ginseng marc and their anti-inflammatory activities” (Bioorg Med Chem Lett, 2014)
In brackets after ≈: the same amount, converted by molar mass. Activity calls are given as the source filed them. The rule behind the calls is not given here.

Key:
RAW264.7 [1] = assay: Antiinflammatory activity in LPS-stimulated mouse RAW264.7 cells assessed as reduction in IL-1beta expression at 40 uM co-incubated with LPS for 24 hrs by RT-PCR method relative to untreated control; assay type: functional
RAW264.7 [2] = assay: Induction of iNOS mRNA expression in LPS-non-stimulated mouse RAW264.7 cells by RT-PCR method; assay type: cell-based
RAW264.7 [3] = assay: Antiinflammatory activity in LPS-stimulated mouse RAW264.7 cells assessed as reduction in COX2 expression at 120 uM co-incubated with LPS for 24 hrs by RT-PCR method relative to untreated control; assay type: functional
RAW264.7 [4] = assay: Antiinflammatory activity in LPS-stimulated mouse RAW264.7 cells assessed as reduction in COX2 expression at 40 uM co-incubated with LPS for 24 hrs by RT-PCR method relative to untreated control; assay type: functional
RAW264.7 [5] = assay: Antiinflammatory activity in LPS-stimulated mouse RAW264.7 cells assessed as reduction in iNOS expression at 120 uM co-incubated with LPS for 24 hrs by RT-PCR method relative to untreated control; assay type: functional
RAW264.7 [6] = assay: Antiinflammatory activity in LPS-stimulated mouse RAW264.7 cells assessed as reduction in iNOS expression co-incubated with LPS for 24 hrs by RT-PCR method relative to untreated control; assay type: functional, cell-based
[7] = Cytotoxicity against LPS-stimulated mouse RAW264.7 cells assessed as cell viability at 80 uM after 24 hrs by MTT assay (reference value: 100%); assay type: cell-based; details: LPS-stimulated RAW264.7 cells, read-out: Activity
RAW264.7 [8] = assay: Antiinflammatory activity in LPS-stimulated mouse RAW264.7 cells assessed as reduction in IL6 expression at 120 uM co-incubated with LPS for 24 hrs by RT-PCR method relative to untreated control; assay type: functional
RAW264.7 [9] = assay: Antiinflammatory activity in LPS-stimulated mouse RAW264.7 cells assessed as reduction in TNFalpha expression at 120 uM co-incubated with LPS for 24 hrs by RT-PCR method relative to untreated control; assay type: functional
RAW264.7 [10] = assay: Antiinflammatory activity in LPS-stimulated mouse RAW264.7 cells assessed as reduction in nitric oxide production at 120 uM after 24 hrs by Griess method based ELISA (reference value: 52.4 +/- 0.9 uM); assay type: functional
RAW264.7 [11] = assay: Antiinflammatory activity in LPS-stimulated mouse RAW264.7 cells assessed as reduction in IL6 expression at 80 uM co-incubated with LPS for 24 hrs by RT-PCR method relative to untreated control; assay type: functional
[12] = Cytotoxicity against LPS-stimulated mouse RAW264.7 cells assessed as cell viability at 40 uM after 24 hrs by MTT assay (reference value: 100%); assay type: cell-based; details: LPS-stimulated RAW264.7 cells, read-out: Activity
RAW264.7 [13] = assay: Antiinflammatory activity in LPS-stimulated mouse RAW264.7 cells assessed as reduction in COX2 expression at 80 uM co-incubated with LPS for 24 hrs by RT-PCR method relative to untreated control; assay type: functional
[14] = Cytotoxicity against LPS-stimulated mouse RAW264.7 cells assessed as cell viability at 120 uM after 24 hrs by MTT assay (reference value: 100%); assay type: cell-based; details: LPS-stimulated RAW264.7 cells, read-out: Activity
RAW264.7 [15] = assay: Antiinflammatory activity in LPS-stimulated mouse RAW264.7 cells assessed as reduction in IL-1beta expression at 80 uM co-incubated with LPS for 24 hrs by RT-PCR method relative to untreated control; assay type: functional
RAW264.7 [16] = assay: Antiinflammatory activity in LPS-stimulated mouse RAW264.7 cells assessed as reduction in iNOS expression at 80 uM co-incubated with LPS for 24 hrs by RT-PCR method relative to untreated control; assay type: functional
RAW264.7 [17] = assay: Antiinflammatory activity in LPS-stimulated mouse RAW264.7 cells assessed as reduction in nitric oxide production at 40 uM after 24 hrs by Griess method based ELISA (reference value: 52.4 +/- 0.9 uM); assay type: functional
RAW264.7 [18] = assay: Antiinflammatory activity in LPS-stimulated mouse RAW264.7 cells assessed as reduction in nitric oxide production after 24 hrs by Griess method based ELISA; assay type: functional, cell-based; details: RAW264.7, 24 h
RAW264.7 [19] = assay: Antiinflammatory activity in LPS-stimulated mouse RAW264.7 cells assessed as reduction in nitric oxide production at 80 uM after 24 hrs by Griess method based ELISA (reference value: 52.4 +/- 0.9 uM); assay type: functional
RAW264.7 [20] = assay: Antiinflammatory activity in LPS-stimulated mouse RAW264.7 cells assessed as reduction in TNFalpha expression at 80 uM co-incubated with LPS for 24 hrs by RT-PCR method relative to untreated control; assay type: functional
RAW264.7 [21] = assay: Antiinflammatory activity in LPS-stimulated mouse RAW264.7 cells assessed as reduction in IL-1beta expression at 120 uM co-incubated with LPS for 24 hrs by RT-PCR method relative to untreated control; assay type: functional
RAW264.7 [22] = assay: Antiinflammatory activity in LPS-stimulated mouse RAW264.7 cells assessed as reduction in iNOS expression at 40 uM co-incubated with LPS for 24 hrs by RT-PCR method relative to untreated control; assay type: functional
RAW264.7 [23] = assay: Antiinflammatory activity in LPS-stimulated mouse RAW264.7 cells assessed as reduction in IL6 level at 40 uM co-incubated with LPS for 24 hrs by ELISA method; assay type: functional, cell-based
RAW264.7 [24] = assay: Antiinflammatory activity in LPS-stimulated mouse RAW264.7 cells assessed as reduction in TNFalpha expression at 40 uM co-incubated with LPS for 24 hrs by RT-PCR method relative to untreated control; assay type: functional
RAW264.7 [25] = assay: Antiinflammatory activity in LPS-stimulated mouse RAW264.7 cells assessed as reduction in IL6 expression at 40 uM co-incubated with LPS for 24 hrs by RT-PCR method relative to untreated control; assay type: functional
[26] = Cytotoxicity against LPS-stimulated mouse RAW264.7 cells assessed as cell viability at 3 uM after 24 hrs by MTT assay (reference value: 100%); assay type: cell-based; details: LPS-stimulated RAW264.7 cells, read-out: Activity
RAW264.7 [27] = assay: Antiinflammatory activity in LPS-stimulated mouse RAW264.7 cells assessed as reduction in nitric oxide production at 1.5 uM after 24 hrs by Griess method based ELISA (reference value: 52.4 +/- 0.9 uM); assay type: functional
[28] = Cytotoxicity against LPS-stimulated mouse RAW264.7 cells assessed as cell viability at 1.5 uM after 24 hrs by MTT assay (reference value: 100%); assay type: cell-based; details: LPS-stimulated RAW264.7 cells, read-out: Activity
RAW264.7 [29] = assay: Antiinflammatory activity in LPS-stimulated mouse RAW264.7 cells assessed as reduction in nitric oxide production at 3 uM after 24 hrs by Griess method based ELISA (reference value: 52.4 +/- 0.9 uM); assay type: functional

Structure (SMILES): CC(C)=CCC[C@@H](C)[C@H]1CC[C@@]2(C)[C@@H]3CC=C4C(C)(C)[C@@H](O[C@@H]5O[C@H](CO[C@@H]6O[C@H](CO[C@@H]7O[C@H](CO)[C@@H](O)[C@H](O)[C@H]7O)[C@@H](O)[C@H](O)[C@H]6O)[C@@H](O)[C@H](O)[C@H]5O)CC[C@]4(C)[C@H]3CC[C@]12C
- fold change (FC) (RAW264.7 [1]): 1
- Activity (RAW264.7 [2]): Non-toxic
- fold change (FC) (RAW264.7 [3]): 0.4
- fold change (FC) (RAW264.7 [4]): 0.7
- fold change (FC) (RAW264.7 [5]): 0.6
- inhibition (RAW264.7 [6]): Dose-dependent effect
- viability at 24 h, 80 µM [7]: 145%
- fold change (FC) (RAW264.7 [8]): 0.6
- fold change (FC) (RAW264.7 [9]): 0.5
- Activity (RAW264.7 [10]): 19.8 µM
- fold change (FC) (RAW264.7 [11]): 1
- viability at 24 h, 40 µM [12]: 121%
- fold change (FC) (RAW264.7 [13]): 0.8
- viability at 24 h, 120 µM [14]: 155%
- fold change (FC) (RAW264.7 [15]): 1.1
- fold change (FC) (RAW264.7 [16]): 1.1
- Activity (RAW264.7 [17]): 40.9 µM
- IC50 (RAW264.7 [18]): 86.7 µg/mL (≈ 94.9 µM)
- Activity (RAW264.7 [19]): 27.5 µM
- fold change (FC) (RAW264.7 [20]): 1
- fold change (FC) (RAW264.7 [21]): 0.5
- fold change (FC) (RAW264.7 [22]): 1
- inhibition (RAW264.7 [23]): Active
- fold change (FC) (RAW264.7 [24]): 0.9
- fold change (FC) (RAW264.7 [25]): 0.9

Structure (SMILES): O=c1c(O)c(-c2ccc(O)c(O)c2)oc2cc(O)cc(O)c12 [QUERCETIN]
- viability at 24 h, 3 µM [26]: 104%
- Activity (RAW264.7 [27]): 20.8 µM
- viability at 24 h, 1.5 µM [28]: 104%
- IC50 (RAW264.7 [18]): 2.9 µg/mL (≈ 9.6 µM)
- Activity (RAW264.7 [29]): 13.5 µM
